Test results: ChEMBL document CHEMBL5335833, “Asperustins A-J: Austocystins with Immunosuppressive and Cytotoxic Activities from Aspergillus ustus NRRL 5856” (J Nat Prod, 2024)

Test system: Splenocyte
Assay: Immunosuppressive activity in BALB/c mouse splenocytes assessed as reduction in ConA-induced mouse T-lymphocytes proliferation
Type: functional, cell-based
Settings: not given

First: COc1cc(OC)c2c(c1)C(=O)C1C=C3O[C@@]4(C)CC[C@H](O)[C@H](O4)C3=C(O)C1C2=O (stereo partly drawn)
Second: COC1=C2C(=CC3Oc4c(OC)cc(Cl)c(OC)c4C(=O)C13)O[C@H]1O[C@@H](O)C[C@@H]21 (stereo partly drawn)
The IC50 of the first is higher: over 40 µM for the first, 11 µM for the second.

`CO[C@H]1C[C@H]2C3=C(O)C4C(=O)c5c(O)ccc(CCC(C)(C)O)c5OC4C=C3O[C@H]2O1` (stereo partly drawn) and `CO[C@H]1C[C@@]2(O)C3=C(O)C4C(=O)c5c(O)ccc(CCC(C)(C)O)c5OC4C=C3O[C@H]2O1` (stereo partly drawn) are within 1.5-fold of each other in IC50: 1.1 µM for the first, 1.2 µM for the second.

Going from `COC1=C2C(=CC3Oc4ccc(Cl)c(OC)c4C(=O)C13)O[C@H]1O[C@H](OC)C[C@@H]21` (stereo partly drawn) to `COC1=C2C(=CC3Oc4ccc(Cl)c(OC)c4C(=O)C13)O[C@H]1O[C@@H](OC)C[C@@H]21` (stereo partly drawn), the IC50 rises from 11 µM to 27 µM (2.5-fold). The first is the more potent here.

`CC(C)=CCc1ccc(O)c2c1OC1C=C3O[C@H]4OC=C[C@@]4(O)C3=C(O)C1C2=O` (stereo partly drawn) and `O=C1c2c(O)cccc2OC2C=C3O[C@H]4OC=C[C@@]4(O)C3=C(O)C12` (stereo partly drawn) are within 1.5-fold of each other in IC50: 14 µM for the first, 9.4 µM for the second.

First: CC(C)(O)CCc1ccc(O)c2c(=O)c3c(O)c4c(cc3oc12)O[C@H]1OC=C[C@@]41O [AUSTOCYSTIN D]
Second: COC1=C2C(=CC3Oc4cccc(O)c4C(=O)C13)O[C@H]1OC=C[C@@]21O (stereo partly drawn)
The IC50 of the first is lower: 1.6 µM for the first, over 40 µM for the second.

Compared with `COC1=C2C(=CC3Oc4c(OC)cc(Cl)c(OC)c4C(=O)C13)O[C@H]1OC=C[C@@H]21` (stereo partly drawn), `COc1c(Cl)ccc2c1C(=O)C1C(O)=C3C(=CC1O2)O[C@H]1OC=C[C@@]31O` (stereo partly drawn) is higher in IC50: 7.1 µM for the first, over 40 µM for the second.

Test system: not listed separately
Assay: Cytotoxicity against mouse B-lymphocytes
Type: toxicity, cell-based, B-cell
Settings: not given

First: COc1cc(OC)c2c(c1)C(=O)C1C=C3O[C@@]4(C)CC[C@H](O)[C@H](O4)C3=C(O)C1C2=O (stereo partly drawn)
Second: COC1=C2C(=CC3Oc4c(OC)cc(Cl)c(OC)c4C(=O)C13)O[C@H]1O[C@@H](O)C[C@@H]21 (stereo partly drawn)
The CC50 of the first is higher: over 40 µM for the first, 31 µM for the second.

Compared with `CO[C@H]1C[C@H]2C3=C(O)C4C(=O)c5c(O)ccc(CCC(C)(C)O)c5OC4C=C3O[C@H]2O1` (stereo partly drawn), `CO[C@H]1C[C@@]2(O)C3=C(O)C4C(=O)c5c(O)ccc(CCC(C)(C)O)c5OC4C=C3O[C@H]2O1` (stereo partly drawn) is 1.7-fold lower in CC50: 15 µM for the first, 8.9 µM for the second.

`COC1=C2C(=CC3Oc4ccc(Cl)c(OC)c4C(=O)C13)O[C@H]1O[C@H](OC)C[C@@H]21` (stereo partly drawn) and `COC1=C2C(=CC3Oc4ccc(Cl)c(OC)c4C(=O)C13)O[C@H]1O[C@@H](OC)C[C@@H]21` (stereo partly drawn) cannot be ordered by CC50: over 40 µM for the first, over 40 µM for the second.

Going from `CC(C)=CCc1ccc(O)c2c1OC1C=C3O[C@H]4OC=C[C@@]4(O)C3=C(O)C1C2=O` (stereo partly drawn) to `O=C1c2c(O)cccc2OC2C=C3O[C@H]4OC=C[C@@]4(O)C3=C(O)C12` (stereo partly drawn), the CC50 rises from 15 µM to over 40 µM.

First: CC(C)(O)CCc1ccc(O)c2c(=O)c3c(O)c4c(cc3oc12)O[C@H]1OC=C[C@@]41O [AUSTOCYSTIN D]
Second: COC1=C2C(=CC3Oc4cccc(O)c4C(=O)C13)O[C@H]1OC=C[C@@]21O (stereo partly drawn)
The CC50 of the first is lower: 7.8 µM for the first, over 40 µM for the second.

First: COC1=C2C(=CC3Oc4c(OC)cc(Cl)c(OC)c4C(=O)C13)O[C@H]1OC=C[C@@H]21 (stereo partly drawn)
Second: COc1c(Cl)ccc2c1C(=O)C1C(O)=C3C(=CC1O2)O[C@H]1OC=C[C@@]31O (stereo partly drawn)
The CC50 of the first is lower: 12 µM for the first, over 40 µM for the second.

Test system: not listed separately
Assay: Selectivity index, ratio of CC50 for cytotoxicity against mouse T lymphocytes to IC50 for Immunosuppressive activity in BALB/c mouse splenocytes assessed as reduction in ConA-induced mouse T-lymphocytes proliferation
Type: toxicity, cell-based
Settings: not given

Going from `CO[C@H]1C[C@H]2C3=C(O)C4C(=O)c5c(O)ccc(CCC(C)(C)O)c5OC4C=C3O[C@H]2O1` (stereo partly drawn) to `CO[C@H]1C[C@@]2(O)C3=C(O)C4C(=O)c5c(O)ccc(CCC(C)(C)O)c5OC4C=C3O[C@H]2O1` (stereo partly drawn), the selectivity ratio falls from 14 to 7.4.

`COC1=C2C(=CC3Oc4ccc(Cl)c(OC)c4C(=O)C13)O[C@H]1O[C@H](OC)C[C@@H]21` (stereo partly drawn) and `COC1=C2C(=CC3Oc4ccc(Cl)c(OC)c4C(=O)C13)O[C@H]1O[C@@H](OC)C[C@@H]21` (stereo partly drawn) cannot be ordered by selectivity ratio: over 3.6 for the first, over 1.5 for the second.

Going from `CC(C)=CCc1ccc(O)c2c1OC1C=C3O[C@H]4OC=C[C@@]4(O)C3=C(O)C1C2=O` (stereo partly drawn) to `O=C1c2c(O)cccc2OC2C=C3O[C@H]4OC=C[C@@]4(O)C3=C(O)C12` (stereo partly drawn), the selectivity ratio rises from 1.1 to over 4.2.

Going from `CC(C)(O)CCc1ccc(O)c2c(=O)c3c(O)c4c(cc3oc12)O[C@H]1OC=C[C@@]41O` [AUSTOCYSTIN D] to `COC1=C2C(=CC3Oc4c(OC)cc(Cl)c(OC)c4C(=O)C13)O[C@H]1OC=C[C@@H]21` (stereo partly drawn), the selectivity ratio falls from 4.9 to 1.7.

`COC1=C2C(=CC3Oc4c(OC)cc(Cl)c(OC)c4C(=O)C13)O[C@H]1O[C@@H](O)C[C@@H]21` (stereo partly drawn) showed a selectivity ratio of 2.8.

Test system: not listed separately
Assay: Cytotoxicity against mouse T-lymphocytes
Type: toxicity, cell-based, T-cell
Settings: not given

Going from `COc1cc(OC)c2c(c1)C(=O)C1C=C3O[C@@]4(C)CC[C@H](O)[C@H](O4)C3=C(O)C1C2=O` (stereo partly drawn) to `COC1=C2C(=CC3Oc4c(OC)cc(Cl)c(OC)c4C(=O)C13)O[C@H]1O[C@@H](O)C[C@@H]21` (stereo partly drawn), the CC50 falls from over 40 µM to 31 µM.

First: CO[C@H]1C[C@H]2C3=C(O)C4C(=O)c5c(O)ccc(CCC(C)(C)O)c5OC4C=C3O[C@H]2O1 (stereo partly drawn)
Second: CO[C@H]1C[C@@]2(O)C3=C(O)C4C(=O)c5c(O)ccc(CCC(C)(C)O)c5OC4C=C3O[C@H]2O1 (stereo partly drawn)
The CC50 of the first is 1.7-fold higher: 15 µM for the first, 8.9 µM for the second.

`COC1=C2C(=CC3Oc4ccc(Cl)c(OC)c4C(=O)C13)O[C@H]1O[C@H](OC)C[C@@H]21` (stereo partly drawn) and `COC1=C2C(=CC3Oc4ccc(Cl)c(OC)c4C(=O)C13)O[C@H]1O[C@@H](OC)C[C@@H]21` (stereo partly drawn) cannot be ordered by CC50: over 40 µM for the first, over 40 µM for the second.

Compared with `CC(C)=CCc1ccc(O)c2c1OC1C=C3O[C@H]4OC=C[C@@]4(O)C3=C(O)C1C2=O` (stereo partly drawn), `O=C1c2c(O)cccc2OC2C=C3O[C@H]4OC=C[C@@]4(O)C3=C(O)C12` (stereo partly drawn) is higher in CC50: 15 µM for the first, over 40 µM for the second.

First: CC(C)(O)CCc1ccc(O)c2c(=O)c3c(O)c4c(cc3oc12)O[C@H]1OC=C[C@@]41O [AUSTOCYSTIN D]
Second: COC1=C2C(=CC3Oc4cccc(O)c4C(=O)C13)O[C@H]1OC=C[C@@]21O (stereo partly drawn)
The CC50 of the first is lower: 7.8 µM for the first, over 40 µM for the second.

First: COC1=C2C(=CC3Oc4c(OC)cc(Cl)c(OC)c4C(=O)C13)O[C@H]1OC=C[C@@H]21 (stereo partly drawn)
Second: COc1c(Cl)ccc2c1C(=O)C1C(O)=C3C(=CC1O2)O[C@H]1OC=C[C@@]31O (stereo partly drawn)
The CC50 of the first is lower: 12 µM for the first, over 40 µM for the second.

Test system: not listed separately
Assay: Selectivity index, ratio of CC50 for cytotoxicity against mouse T lymphocytes to IC50 for Immunosuppressive activity in BALB/c mouse splenocytes assessed as reduction in […]-induced mouse B-lymphocytes proliferation
Type: toxicity, cell-based
Settings: not given

Going from `COc1cc(OC)c2c(c1)C(=O)C1C=C3O[C@@]4(C)CC[C@H](O)[C@H](O4)C3=C(O)C1C2=O` (stereo partly drawn) to `COC1=C2C(=CC3Oc4c(OC)cc(Cl)c(OC)c4C(=O)C13)O[C@H]1O[C@@H](O)C[C@@H]21` (stereo partly drawn), the selectivity ratio falls from over 5.7 to 3.1.

Going from `CO[C@H]1C[C@H]2C3=C(O)C4C(=O)c5c(O)ccc(CCC(C)(C)O)c5OC4C=C3O[C@H]2O1` (stereo partly drawn) to `CO[C@H]1C[C@@]2(O)C3=C(O)C4C(=O)c5c(O)ccc(CCC(C)(C)O)c5OC4C=C3O[C@H]2O1` (stereo partly drawn), the selectivity ratio rises from 1.9 to 2.1.

`COC1=C2C(=CC3Oc4ccc(Cl)c(OC)c4C(=O)C13)O[C@H]1O[C@H](OC)C[C@@H]21` (stereo partly drawn) and `COC1=C2C(=CC3Oc4ccc(Cl)c(OC)c4C(=O)C13)O[C@H]1O[C@@H](OC)C[C@@H]21` (stereo partly drawn) cannot be ordered by selectivity ratio: over 7.8 for the first, over 3.6 for the second.

Compared with `CC(C)=CCc1ccc(O)c2c1OC1C=C3O[C@H]4OC=C[C@@]4(O)C3=C(O)C1C2=O` (stereo partly drawn), `CC(C)(O)CCc1ccc(O)c2c(=O)c3c(O)c4c(cc3oc12)O[C@H]1OC=C[C@@]41O` [AUSTOCYSTIN D] is higher in selectivity ratio: 0.94 for the first, 2 for the second.

In the case of `COC1=C2C(=CC3Oc4c(OC)cc(Cl)c(OC)c4C(=O)C13)O[C@H]1OC=C[C@@H]21` (stereo partly drawn), the selectivity ratio is reported as 0.92.

Test system: Splenocyte
Assay: Immunosuppressive activity in BALB/c mouse splenocytes assessed as reduction in […]-induced mouse B-lymphocyte proliferation
Type: functional, cell-based
Settings: not given

`COc1cc(OC)c2c(c1)C(=O)C1C=C3O[C@@]4(C)CC[C@H](O)[C@H](O4)C3=C(O)C1C2=O` (stereo partly drawn) and `COC1=C2C(=CC3Oc4c(OC)cc(Cl)c(OC)c4C(=O)C13)O[C@H]1O[C@@H](O)C[C@@H]21` (stereo partly drawn) are within 1.5-fold of each other in IC50: 7 µM for the first, 10 µM for the second.

Compared with `CO[C@H]1C[C@H]2C3=C(O)C4C(=O)c5c(O)ccc(CCC(C)(C)O)c5OC4C=C3O[C@H]2O1` (stereo partly drawn), `CO[C@H]1C[C@@]2(O)C3=C(O)C4C(=O)c5c(O)ccc(CCC(C)(C)O)c5OC4C=C3O[C@H]2O1` (stereo partly drawn) is 1.8-fold lower in IC50: 7.9 µM for the first, 4.3 µM for the second. The second is the more potent here.

Compared with `COC1=C2C(=CC3Oc4ccc(Cl)c(OC)c4C(=O)C13)O[C@H]1O[C@H](OC)C[C@@H]21` (stereo partly drawn), `COC1=C2C(=CC3Oc4ccc(Cl)c(OC)c4C(=O)C13)O[C@H]1O[C@@H](OC)C[C@@H]21` (stereo partly drawn) is 2.2-fold higher in IC50: 5.1 µM for the first, 11 µM for the second. The first is the more potent here.

First: CC(C)=CCc1ccc(O)c2c1OC1C=C3O[C@H]4OC=C[C@@]4(O)C3=C(O)C1C2=O (stereo partly drawn)
Second: O=C1c2c(O)cccc2OC2C=C3O[C@H]4OC=C[C@@]4(O)C3=C(O)C12 (stereo partly drawn)
The IC50 of the first is lower: 16 µM for the first, over 40 µM for the second. The first is the more potent here.

Compared with `CC(C)(O)CCc1ccc(O)c2c(=O)c3c(O)c4c(cc3oc12)O[C@H]1OC=C[C@@]41O` [AUSTOCYSTIN D], `COC1=C2C(=CC3Oc4cccc(O)c4C(=O)C13)O[C@H]1OC=C[C@@]21O` (stereo partly drawn) is higher in IC50: 4 µM for the first, over 40 µM for the second. The first is the more potent here.

Going from `COC1=C2C(=CC3Oc4c(OC)cc(Cl)c(OC)c4C(=O)C13)O[C@H]1OC=C[C@@H]21` (stereo partly drawn) to `COc1c(Cl)ccc2c1C(=O)C1C(O)=C3C(=CC1O2)O[C@H]1OC=C[C@@]31O` (stereo partly drawn), the IC50 rises from 13 µM to over 40 µM.

Test system: Splenocyte
Assay: Immunosuppressive activity in LPS-induced BALB/c mouse splenocyte assessed as reduction in IL-6 cytokine level incubated for 48 hrs by ELISA assay
Type: functional, cell-based
Settings: dose 0.2-5 µM

For `CO[C@H]1C[C@H]2C3=C(O)C4C(=O)c5c(O)ccc(CCC(C)(C)O)c5OC4C=C3O[C@H]2O1` (stereo partly drawn), the Activity was “Dose-Dependent Effect”.

Test system: MCF7
Assay: Cytotoxicity against human MCF7 cells
Type: functional, cell-based
Settings: not given

Work on `CC(C)(O)CCc1ccc(O)c2c(=O)c3c(O)c4c(cc3oc12)O[C@H]1OC=C[C@@]41O` [AUSTOCYSTIN D] yielded an IC50 of 0.46 µM.
